From ChEMBL document CHEMBL3526086, “Identification of the oxidative and conjugative enzymes involved in the biotransformation of brivanib” (Drug Metab Dispos, 2012) come the findings set out here.

Format in all cases: ADME
In data set [1] the target is T1, Cytochrome P450 2B6 (Homo sapiens, UniProt P20813).
T1 sequence (P20813 whole entry): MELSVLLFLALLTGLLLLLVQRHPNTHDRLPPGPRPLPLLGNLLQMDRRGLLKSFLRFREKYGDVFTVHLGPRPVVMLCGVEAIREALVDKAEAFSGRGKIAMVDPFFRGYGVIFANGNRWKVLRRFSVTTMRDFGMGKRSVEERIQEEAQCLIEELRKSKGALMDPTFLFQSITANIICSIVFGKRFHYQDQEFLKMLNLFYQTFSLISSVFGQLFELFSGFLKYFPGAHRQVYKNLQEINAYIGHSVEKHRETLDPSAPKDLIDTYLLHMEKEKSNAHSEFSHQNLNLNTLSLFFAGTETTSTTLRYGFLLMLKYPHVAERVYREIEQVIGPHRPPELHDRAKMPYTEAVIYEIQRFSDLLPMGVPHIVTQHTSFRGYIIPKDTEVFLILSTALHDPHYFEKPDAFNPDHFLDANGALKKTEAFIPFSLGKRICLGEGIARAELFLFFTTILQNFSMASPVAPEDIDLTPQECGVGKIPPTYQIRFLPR
Briefly: Drug metabolism in human liver microsomes assessed as 50 uM orphenadrine-mediated inhibition of CYP2B6-mediated (R)-1-(4-(4-fluoro-2-(hydroxymethyl)-1H-indol-5-yloxy)-5-methylpyrrolo[1,2-f][1,2,4]triazin-6-yloxy)propan-2-ol formation at 2 and 20 uM for 30 mins by LC/MS analysis. To be noted: 0.5 h.

Data set [2] has as its target Sulfotransferase 1B1 (Homo sapiens, UniProt O43704). Briefly: Drug metabolism assessed as human SULT1B1-mediated (R)-1-(4-(4-fluoro-2-methyl-1H-indol-5-yloxy)-5-methylpyrrolo[1,2-f][1,2,4]triazin-6-yloxy)propane-2-sulfonic acid formation at 2 and 20 uM for 30 mins by LC/MS analysis in presence of PAPS. The following applies: 0.5 h.
Data set [3] has as its target Cytochrome P450 1A1 (Homo sapiens, UniProt P04798). Briefly: Drug metabolism assessed as human CYP1A1-mediated (R)-1-(4-(4-fluoro-2-(hydroxymethyl)-1H-indol-5-yloxy)-5-methylpyrrolo[1,2-f][1,2,4]triazin-6-yloxy)propan-2-ol formation at 2 and 20 uM for 20 mins by LC/MS analysis in presence of NADPH. To be noted: recombinant enzyme.
Data set [4] addresses T2, Cytochrome P450 2D6 (Homo sapiens, UniProt P10635). Briefly: Drug metabolism in human liver microsomes assessed as monoclonal antibody-mediated inhibition of CYP2D6-mediated(R)-1-(4-(4-fluoro-2-(hydroxymethyl)-1H-indol-5-yloxy)-5-methylpyrrolo[1,2-f][1,2,4]triazin-6-yloxy)propan-2-ol formation at 2 and 20 uM for 30 mins by LC/MS analysis. The following applies: 0.5 h.
Data set [5] addresses Sulfotransferase 2A1 (Homo sapiens, UniProt Q06520). Briefly: Drug metabolism assessed as human SULT2A1-mediated (R)-1-(4-(4-fluoro-2-methyl-1H-indol-5-yloxy)-5-methylpyrrolo[1,2-f][1,2,4]triazin-6-yloxy)propane-2-sulfonic acid formation at 2 and 20 uM for 30 mins by LC/MS analysis in presence of PAPS. The following applies: 0.5 h.
Data set [6] deals with Cytochrome P450 2C9 (Homo sapiens, UniProt P11712). Briefly: Drug metabolism assessed as human CYP2C9-mediated (R)-1-(4-(4-fluoro-2-(hydroxymethyl)-1H-indol-5-yloxy)-5-methylpyrrolo[1,2-f][1,2,4]triazin-6-yloxy)propan-2-ol formation at 2 and 20 uM for 20 mins by LC/MS analysis in presence of NADPH. The following applies: recombinant enzyme.
Cytochrome P450 2C9, sequence (P11712 whole entry): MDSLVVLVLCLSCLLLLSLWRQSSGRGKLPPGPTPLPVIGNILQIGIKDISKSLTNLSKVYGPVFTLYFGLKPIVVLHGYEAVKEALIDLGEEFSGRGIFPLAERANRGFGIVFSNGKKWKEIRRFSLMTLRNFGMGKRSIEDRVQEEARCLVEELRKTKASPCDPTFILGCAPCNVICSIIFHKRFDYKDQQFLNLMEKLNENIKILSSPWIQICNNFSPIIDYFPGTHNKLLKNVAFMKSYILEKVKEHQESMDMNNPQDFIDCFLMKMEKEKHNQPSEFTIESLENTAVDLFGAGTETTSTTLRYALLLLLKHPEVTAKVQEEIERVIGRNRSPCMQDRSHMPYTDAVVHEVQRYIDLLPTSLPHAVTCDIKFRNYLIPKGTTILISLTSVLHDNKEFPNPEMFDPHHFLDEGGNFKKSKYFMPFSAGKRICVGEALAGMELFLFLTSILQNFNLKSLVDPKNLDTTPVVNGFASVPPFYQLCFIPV
For data set [7], the target named is T1, Cytochrome P450 2B6. Briefly: Drug metabolism assessed as human CYP2B6-mediated (R)-1-(4-(4-fluoro-2-(hydroxymethyl)-1H-indol-5-yloxy)-5-methylpyrrolo[1,2-f][1,2,4]triazin-6-yloxy)propan-2-ol formation at 2 and 20 uM for 20 mins by LC/MS analysis in presence of NADPH. To be noted: recombinant enzyme.
Data set [8] addresses Sulfotransferase 1A1 (Homo sapiens, UniProt P50225). The experiment in a line: Drug metabolism assessed as human SULT1A1-mediated (R)-1-(4-(4-fluoro-2-methyl-1H-indol-5-yloxy)-5-methylpyrrolo[1,2-f][1,2,4]triazin-6-yloxy)propane-2-sulfonic acid formation at 2 and 20 uM for 30 mins by LC/MS analysis in presence of PAPS. To be noted: 0.5 h.
Data set [9] can be described thus: Activity of CYP3A4/CYP1A2 in human liver microsomes assessed as enzyme-mediated (R)-1-(4-(4-fluoro-2-(hydroxymethyl)-1H-indol-5-yloxy)-5-methylpyrrolo[1,2-f][1,2,4]triazin-6-yloxy)propan-2-ol formation per mg protein in presence of NADPH.
The test system of data set [10] is Liver microsome. The experiment in a line: Drug level in human liver microsomes assessed as compound formation treated with 2 uM [14C]brivanib alaninate for 60 mins by LC/MS analysis. To be noted: 1 h.
Data set [11] has as its target Cytochrome P450 3A5 (Homo sapiens, UniProt P20815). Briefly: Drug metabolism assessed as human CYP3A5-mediated (R)-1-(4-(4-fluoro-2-(hydroxymethyl)-1H-indol-5-yloxy)-5-methylpyrrolo[1,2-f][1,2,4]triazin-6-yloxy)propan-2-ol formation at 2 and 20 uM for 20 mins by LC/MS analysis in presence of NADPH. The following applies: recombinant enzyme.
In data set [12] the target is T2, Cytochrome P450 2D6. The experiment in a line: Drug metabolism in human liver microsomes assessed as 1 uM quinidine-mediated inhibition of CYP2D6-mediated(R)-1-(4-(4-fluoro-2-(hydroxymethyl)-1H-indol-5-yloxy)-5-methylpyrrolo[1,2-f][1,2,4]triazin-6-yloxy)propan-2-ol formation at 2 and 20 uM for 30 mins by LC/MS analysis. To be noted: 0.5 h.
The target in data set [13] is T3, Cytochrome P450 2C19 (Homo sapiens, UniProt P33261). Briefly: Drug metabolism assessed as human CYP2C19-mediated (R)-1-(4-(4-fluoro-2-(hydroxymethyl)-1H-indol-5-yloxy)-5-methylpyrrolo[1,2-f][1,2,4]triazin-6-yloxy)propan-2-ol formation at 2 and 20 uM for 20 mins by LC/MS analysis in presence of NADPH. To be noted: recombinant enzyme.
T3 sequence (P33261 whole entry): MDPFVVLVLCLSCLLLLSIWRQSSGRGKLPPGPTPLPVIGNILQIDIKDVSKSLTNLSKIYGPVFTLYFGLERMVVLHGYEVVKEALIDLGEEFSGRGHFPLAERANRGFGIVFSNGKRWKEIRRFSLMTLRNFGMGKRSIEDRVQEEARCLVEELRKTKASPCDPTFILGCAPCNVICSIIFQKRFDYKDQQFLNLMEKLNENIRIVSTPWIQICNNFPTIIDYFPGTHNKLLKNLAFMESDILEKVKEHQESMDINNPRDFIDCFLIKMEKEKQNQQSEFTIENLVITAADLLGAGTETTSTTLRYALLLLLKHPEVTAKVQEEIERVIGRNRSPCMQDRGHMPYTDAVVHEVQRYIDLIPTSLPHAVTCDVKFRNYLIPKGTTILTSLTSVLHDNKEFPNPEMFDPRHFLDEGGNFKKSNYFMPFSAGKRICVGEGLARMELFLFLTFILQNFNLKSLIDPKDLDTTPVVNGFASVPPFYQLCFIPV
Data set [14] deals with T1, Cytochrome P450 2B6. Briefly: Drug metabolism in human liver microsomes assessed as monoclonal antibody-mediated inhibition of CYP2B6-mediated (R)-1-(4-(4-fluoro-2-(hydroxymethyl)-1H-indol-5-yloxy)-5-methylpyrrolo[1,2-f][1,2,4]triazin-6-yloxy)propan-2-ol formation at 2 and 20 uM for 30 mins by LC/MS analysis. The following applies: 0.5 h.
In data set [15] the target is T3, Cytochrome P450 2C19. Briefly: Drug metabolism in human liver microsomes assessed as monoclonal antibody-mediated inhibition of CYP2C19-mediated (R)-1-(4-(4-fluoro-2-(hydroxymethyl)-1H-indol-5-yloxy)-5-methylpyrrolo[1,2-f][1,2,4]triazin-6-yloxy)propan-2-ol formation at 2 and 20 uM for 30 mins by LC/MS analysis. To be noted: 0.5 h.
Data set [16] has as its target Sulfotransferase 1A3 (Homo sapiens, UniProt P0DMM9). The experiment in a line: Drug metabolism assessed as human SULT1A3-mediated (R)-1-(4-(4-fluoro-2-methyl-1H-indol-5-yloxy)-5-methylpyrrolo[1,2-f][1,2,4]triazin-6-yloxy)propane-2-sulfonic acid formation at 2 and 20 uM for 30 mins by LC/MS analysis in presence of PAPS. The following applies: 0.5 h.

T2 sequence (P10635 whole entry): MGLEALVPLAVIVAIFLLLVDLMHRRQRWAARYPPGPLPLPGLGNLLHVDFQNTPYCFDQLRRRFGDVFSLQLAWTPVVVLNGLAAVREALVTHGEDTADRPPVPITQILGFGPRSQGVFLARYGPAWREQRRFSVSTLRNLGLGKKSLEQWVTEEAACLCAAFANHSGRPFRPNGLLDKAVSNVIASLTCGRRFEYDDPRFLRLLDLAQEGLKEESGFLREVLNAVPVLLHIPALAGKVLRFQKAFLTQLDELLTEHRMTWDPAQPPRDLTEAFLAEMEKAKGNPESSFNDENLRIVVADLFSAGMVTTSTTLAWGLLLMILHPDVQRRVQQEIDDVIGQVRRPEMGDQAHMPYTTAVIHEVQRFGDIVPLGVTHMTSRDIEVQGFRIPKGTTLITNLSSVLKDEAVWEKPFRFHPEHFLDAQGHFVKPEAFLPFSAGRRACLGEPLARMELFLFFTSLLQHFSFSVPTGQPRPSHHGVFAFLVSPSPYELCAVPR
Cytochrome P450 3A5, sequence (P20815 whole entry): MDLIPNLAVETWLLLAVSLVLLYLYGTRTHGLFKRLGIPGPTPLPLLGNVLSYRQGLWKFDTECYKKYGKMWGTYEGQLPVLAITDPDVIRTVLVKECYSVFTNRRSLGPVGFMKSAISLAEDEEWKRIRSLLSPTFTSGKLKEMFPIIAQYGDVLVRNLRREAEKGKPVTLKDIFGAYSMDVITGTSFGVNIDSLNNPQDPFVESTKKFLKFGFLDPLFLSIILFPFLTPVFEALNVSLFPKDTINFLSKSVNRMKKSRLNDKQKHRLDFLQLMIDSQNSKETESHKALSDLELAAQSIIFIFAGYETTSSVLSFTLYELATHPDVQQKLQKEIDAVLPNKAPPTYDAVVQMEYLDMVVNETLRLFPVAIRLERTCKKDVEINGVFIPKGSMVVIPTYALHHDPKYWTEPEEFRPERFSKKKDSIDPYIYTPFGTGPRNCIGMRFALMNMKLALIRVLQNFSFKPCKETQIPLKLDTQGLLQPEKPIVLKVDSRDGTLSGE
Cytochrome P450 1A1, sequence (P04798 whole entry): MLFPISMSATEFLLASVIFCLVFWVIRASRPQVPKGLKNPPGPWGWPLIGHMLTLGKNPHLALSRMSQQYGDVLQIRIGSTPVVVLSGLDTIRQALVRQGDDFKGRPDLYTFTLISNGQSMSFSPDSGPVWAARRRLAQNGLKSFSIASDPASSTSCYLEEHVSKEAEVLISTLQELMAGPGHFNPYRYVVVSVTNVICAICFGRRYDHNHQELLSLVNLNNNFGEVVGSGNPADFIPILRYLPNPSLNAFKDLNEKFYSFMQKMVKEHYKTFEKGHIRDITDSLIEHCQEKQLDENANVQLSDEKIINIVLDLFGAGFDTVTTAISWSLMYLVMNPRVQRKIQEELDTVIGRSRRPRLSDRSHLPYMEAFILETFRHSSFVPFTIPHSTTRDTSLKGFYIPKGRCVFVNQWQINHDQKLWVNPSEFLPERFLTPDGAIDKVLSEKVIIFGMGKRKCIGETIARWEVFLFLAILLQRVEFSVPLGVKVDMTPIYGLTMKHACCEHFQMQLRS
Sulfotransferase 1A1, sequence (P50225 whole entry): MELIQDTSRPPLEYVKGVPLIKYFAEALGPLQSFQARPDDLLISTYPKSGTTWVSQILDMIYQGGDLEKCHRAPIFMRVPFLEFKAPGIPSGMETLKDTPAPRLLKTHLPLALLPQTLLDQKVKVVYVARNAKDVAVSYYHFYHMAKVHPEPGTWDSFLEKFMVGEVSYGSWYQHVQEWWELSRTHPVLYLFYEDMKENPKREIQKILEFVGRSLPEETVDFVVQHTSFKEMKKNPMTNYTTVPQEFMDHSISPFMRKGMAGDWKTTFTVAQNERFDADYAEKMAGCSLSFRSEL
Sulfotransferase 1B1, sequence (O43704 whole entry): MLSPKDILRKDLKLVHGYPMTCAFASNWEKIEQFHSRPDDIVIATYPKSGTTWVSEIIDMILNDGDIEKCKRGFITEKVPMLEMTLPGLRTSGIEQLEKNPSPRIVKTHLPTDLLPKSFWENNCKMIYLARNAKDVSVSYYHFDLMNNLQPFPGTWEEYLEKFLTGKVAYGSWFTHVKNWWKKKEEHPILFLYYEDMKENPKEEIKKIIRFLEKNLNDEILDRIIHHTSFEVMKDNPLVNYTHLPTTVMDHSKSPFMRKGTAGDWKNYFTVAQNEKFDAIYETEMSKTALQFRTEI
Sulfotransferase 1A3, sequence (P0DMM9 whole entry): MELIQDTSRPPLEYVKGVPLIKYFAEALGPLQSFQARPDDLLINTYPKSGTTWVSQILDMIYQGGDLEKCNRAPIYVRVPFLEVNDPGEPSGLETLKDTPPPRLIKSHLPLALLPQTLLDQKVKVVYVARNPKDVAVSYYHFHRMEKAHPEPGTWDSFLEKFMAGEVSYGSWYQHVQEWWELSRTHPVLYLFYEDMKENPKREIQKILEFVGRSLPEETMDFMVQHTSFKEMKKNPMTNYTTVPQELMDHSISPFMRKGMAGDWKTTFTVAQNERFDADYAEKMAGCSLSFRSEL
Sulfotransferase 2A1, sequence (Q06520 whole entry): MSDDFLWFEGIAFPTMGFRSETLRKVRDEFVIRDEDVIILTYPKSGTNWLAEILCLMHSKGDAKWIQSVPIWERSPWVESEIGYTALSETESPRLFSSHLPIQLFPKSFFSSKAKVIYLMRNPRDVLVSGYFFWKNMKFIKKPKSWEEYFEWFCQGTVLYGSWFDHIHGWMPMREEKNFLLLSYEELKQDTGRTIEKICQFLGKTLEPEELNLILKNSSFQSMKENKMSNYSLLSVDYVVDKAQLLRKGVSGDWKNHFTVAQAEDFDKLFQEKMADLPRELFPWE

In the case of `Cc1cc2c(F)c(Oc3ncnn4cc(OC[C@@H](C)O)c(C)c34)ccc2[nH]1` [BRIVANIB], the Drug metabolism entry in [1], in data set [2], in data set [3], in data set [4], in [5] and in data set [6] was “metabolite_detected” in each case. The Drug metabolism entry in [7], in [8], in data set [10], in data set [11], in data set [12] and in data set [13] was “metabolite_detected” in each case. Further, the Drug metabolism entry in data set [14], in data set [15] and in [16] was “metabolite_detected” throughout. Besides, in data set [9], the Vmax came to 89.1 pmol/min.
